The record followed here is ChEMBL document CHEMBL1773064, “Engineered Thermoplasma acidophilum factor F3 mimics human aminopeptidase N (APN) as a target for anticancer drug development” (Bioorg Med Chem, 2011).

The IC50 is the concentration that inhibits the measured activity by half.

The nature of data set [1]: Inhibition of Thermoplasma acidophilum ATCC25905 recombinant Tricorn protease-interacting factor F3 E101Q, N261T mutant using Leu-p-nitroanilide as a substrate after 30 mins.
A short description of data set [2]: Solubility of compound. It is filed as physicochemical.

Consider `NC(Cc1ccccc1)C(=O)NC(CCCCNC(=O)OCc1ccccc1)C(=O)NO` (configuration not stated), for which, in data set [1], the IC50 is 30 µM. For the same compound, the solubility entry in data set [2] is “soluble”.
